We go through 4 compounds from ChEMBL document CHEMBL3046069, “Anti-inflammatory effects of two new methyl and morpholine derivatives of diphenhydramine on rats” (2012).

The source made the active and inactive calls. The calls are words filed in the database; no cut-off is given here.

By inhibition in vivo is commonly meant the percentage by which the read-out fell short of the control.

Experiment [1] has as its system Rattus norvegicus. Briefly: Anti-inflammatory activity in Rattus norvegicus Wistar (rat) assessed as cotton pellet-induced dry weight of granuloma administered 7 days post cotton pellet implantation measured on day 8 (reference value: […]). It is filed as functional.
Experiment [2] has as its system Rattus norvegicus. Put plainly: Anti-inflammatory activity in Rattus norvegicus Wistar (rat) assessed as inhibition of acetic acid-induced dye extrusion into peritonial cavity administered 30 min prior to acetic acid challenge measured after 30 min by Evans blue dye-based spectrophotometric analysis relative to control. It is filed as functional.
For experiment [3], the system named is Rattus norvegicus. Put plainly: Anti-inflammatory activity in Rattus norvegicus Wistar (rat) assessed as inhibition of formalin-induced dye extrusion from plantar surface of paws at 25 mg/kg, ip administered 30 min prior to formalin challenge measured after 30 min by Evans blue dye-based spectrophotometric analysis. Particulars: route intraperitoneal. It is filed as functional.

Experiment [4] has as its system Rattus norvegicus. Put plainly: Anti-inflammatory activity in Rattus norvegicus Wistar (rat) assessed as inhibition of histamine-induced dye extrusion from plantar surface of paws at 25 mg/kg, ip administered 30 min […] measured after 30 min by Evans blue dye-based spectroscopic analysis. It is filed as functional. Particulars: route intraperitoneal.

In experiment [5] the test system is Rattus norvegicus. Briefly: Anti-inflammatory activity in Rattus norvegicus Wistar (rat) assessed as inhibition of […]-induced ear edema administered 30 min prior to […] challenge measured after 30 min by Evans blue dye-based spectrophotometric analysis relative to control. It is filed as functional, organism-based.
In experiment [6] the test system is Rattus norvegicus. Briefly: Anti-inflammatory activity in Rattus norvegicus Wistar (rat) assessed as inhibition of formalin-induced paw edema at 25 mg/kg, ip administered 30 min prior to formalin challenge measured at 1 hr relative to control. It is filed as functional. Particulars: route intraperitoneal.
The subject of experiment [7] is Rattus norvegicus. Briefly: Anti-inflammatory activity in Rattus norvegicus Wistar (rat) assessed as inhibition of histamine-induced paw edema at 25 mg/kg, ip administered 30 min […] measured at 1 hr relative to control. It is filed as functional. Particulars: route intraperitoneal.

As to `Cc1ccc(C(OCCN2CCOCC2)c2ccc(C)cc2)cc1`, the Activity in the experiment on Rattus norvegicus [1] is 71 mg. In addition, the “inhibition (INH)” value with Rattus norvegicus [2] is 63.26%. The inhibition in vivo at 25 mg/kg with Rattus norvegicus [3] and in the experiment with Rattus norvegicus [4] was 60% each time. Besides, the inhibition result with Rattus norvegicus [5] is “inactive”.
In the case of `CN(C)CCOC(c1ccccc1)c1ccc(Br)cc1` (configuration not stated) [BROMODIPHENHYDRAMINE], the inhibition in vivo at 25 mg/kg in the experiment on Rattus norvegicus [6] is 14.3%; in the experiment on Rattus norvegicus [7] it was 22.4%. Further, the inhibition result in the experiment with Rattus norvegicus [2] was “Active”. Moreover, in the experiment with Rattus norvegicus [5], the inhibition entry was “inactive”.
Take `Cc1ccc(C(OCCN(C)C)c2ccc(C)cc2)cc1` [DI(P-TOLYL)(DIMETHYLAMINOETHOXY)METHANE]: in the experiment with Rattus norvegicus [1], the Activity came out at 73.2 mg. Moreover, the inhibition in vivo at 25 mg/kg in the experiment with Rattus norvegicus [6] worked out at 34.7%; in the experiment on Rattus norvegicus [3], 66.7%; with Rattus norvegicus [4], 57.1%; in the experiment with Rattus norvegicus [7], 40.8%. The “inhibition (INH)” value in the experiment with Rattus norvegicus [2] is given as 65.3%. Besides, the inhibition result in the experiment with Rattus norvegicus [5] was “inactive”.
Take `CN(C)CCOC(c1ccccc1)c1ccccc1` [DIPHENHYDRAMINE]: the Activity in the experiment on Rattus norvegicus [1] is 76.2 mg.
